# Measured values: ChEMBL document CHEMBL3407334, “Synthesis of novel inhibitors of α-glucosidase based on the benzothiazole skeleton containing benzohydrazide moiety and their molecular docking studies” (Eur J Med Chem, 2015)
# Target: Maltase-glucoamylase (Homo sapiens, UniProt O43451)
# Experiment: Inhibition of alpha-glucosidase (unknown origin) using pNPG substrate incubated for 15 mins by microplate reader based method; call rule not given here
# Maltase-glucoamylase, sequence (O43451 whole entry): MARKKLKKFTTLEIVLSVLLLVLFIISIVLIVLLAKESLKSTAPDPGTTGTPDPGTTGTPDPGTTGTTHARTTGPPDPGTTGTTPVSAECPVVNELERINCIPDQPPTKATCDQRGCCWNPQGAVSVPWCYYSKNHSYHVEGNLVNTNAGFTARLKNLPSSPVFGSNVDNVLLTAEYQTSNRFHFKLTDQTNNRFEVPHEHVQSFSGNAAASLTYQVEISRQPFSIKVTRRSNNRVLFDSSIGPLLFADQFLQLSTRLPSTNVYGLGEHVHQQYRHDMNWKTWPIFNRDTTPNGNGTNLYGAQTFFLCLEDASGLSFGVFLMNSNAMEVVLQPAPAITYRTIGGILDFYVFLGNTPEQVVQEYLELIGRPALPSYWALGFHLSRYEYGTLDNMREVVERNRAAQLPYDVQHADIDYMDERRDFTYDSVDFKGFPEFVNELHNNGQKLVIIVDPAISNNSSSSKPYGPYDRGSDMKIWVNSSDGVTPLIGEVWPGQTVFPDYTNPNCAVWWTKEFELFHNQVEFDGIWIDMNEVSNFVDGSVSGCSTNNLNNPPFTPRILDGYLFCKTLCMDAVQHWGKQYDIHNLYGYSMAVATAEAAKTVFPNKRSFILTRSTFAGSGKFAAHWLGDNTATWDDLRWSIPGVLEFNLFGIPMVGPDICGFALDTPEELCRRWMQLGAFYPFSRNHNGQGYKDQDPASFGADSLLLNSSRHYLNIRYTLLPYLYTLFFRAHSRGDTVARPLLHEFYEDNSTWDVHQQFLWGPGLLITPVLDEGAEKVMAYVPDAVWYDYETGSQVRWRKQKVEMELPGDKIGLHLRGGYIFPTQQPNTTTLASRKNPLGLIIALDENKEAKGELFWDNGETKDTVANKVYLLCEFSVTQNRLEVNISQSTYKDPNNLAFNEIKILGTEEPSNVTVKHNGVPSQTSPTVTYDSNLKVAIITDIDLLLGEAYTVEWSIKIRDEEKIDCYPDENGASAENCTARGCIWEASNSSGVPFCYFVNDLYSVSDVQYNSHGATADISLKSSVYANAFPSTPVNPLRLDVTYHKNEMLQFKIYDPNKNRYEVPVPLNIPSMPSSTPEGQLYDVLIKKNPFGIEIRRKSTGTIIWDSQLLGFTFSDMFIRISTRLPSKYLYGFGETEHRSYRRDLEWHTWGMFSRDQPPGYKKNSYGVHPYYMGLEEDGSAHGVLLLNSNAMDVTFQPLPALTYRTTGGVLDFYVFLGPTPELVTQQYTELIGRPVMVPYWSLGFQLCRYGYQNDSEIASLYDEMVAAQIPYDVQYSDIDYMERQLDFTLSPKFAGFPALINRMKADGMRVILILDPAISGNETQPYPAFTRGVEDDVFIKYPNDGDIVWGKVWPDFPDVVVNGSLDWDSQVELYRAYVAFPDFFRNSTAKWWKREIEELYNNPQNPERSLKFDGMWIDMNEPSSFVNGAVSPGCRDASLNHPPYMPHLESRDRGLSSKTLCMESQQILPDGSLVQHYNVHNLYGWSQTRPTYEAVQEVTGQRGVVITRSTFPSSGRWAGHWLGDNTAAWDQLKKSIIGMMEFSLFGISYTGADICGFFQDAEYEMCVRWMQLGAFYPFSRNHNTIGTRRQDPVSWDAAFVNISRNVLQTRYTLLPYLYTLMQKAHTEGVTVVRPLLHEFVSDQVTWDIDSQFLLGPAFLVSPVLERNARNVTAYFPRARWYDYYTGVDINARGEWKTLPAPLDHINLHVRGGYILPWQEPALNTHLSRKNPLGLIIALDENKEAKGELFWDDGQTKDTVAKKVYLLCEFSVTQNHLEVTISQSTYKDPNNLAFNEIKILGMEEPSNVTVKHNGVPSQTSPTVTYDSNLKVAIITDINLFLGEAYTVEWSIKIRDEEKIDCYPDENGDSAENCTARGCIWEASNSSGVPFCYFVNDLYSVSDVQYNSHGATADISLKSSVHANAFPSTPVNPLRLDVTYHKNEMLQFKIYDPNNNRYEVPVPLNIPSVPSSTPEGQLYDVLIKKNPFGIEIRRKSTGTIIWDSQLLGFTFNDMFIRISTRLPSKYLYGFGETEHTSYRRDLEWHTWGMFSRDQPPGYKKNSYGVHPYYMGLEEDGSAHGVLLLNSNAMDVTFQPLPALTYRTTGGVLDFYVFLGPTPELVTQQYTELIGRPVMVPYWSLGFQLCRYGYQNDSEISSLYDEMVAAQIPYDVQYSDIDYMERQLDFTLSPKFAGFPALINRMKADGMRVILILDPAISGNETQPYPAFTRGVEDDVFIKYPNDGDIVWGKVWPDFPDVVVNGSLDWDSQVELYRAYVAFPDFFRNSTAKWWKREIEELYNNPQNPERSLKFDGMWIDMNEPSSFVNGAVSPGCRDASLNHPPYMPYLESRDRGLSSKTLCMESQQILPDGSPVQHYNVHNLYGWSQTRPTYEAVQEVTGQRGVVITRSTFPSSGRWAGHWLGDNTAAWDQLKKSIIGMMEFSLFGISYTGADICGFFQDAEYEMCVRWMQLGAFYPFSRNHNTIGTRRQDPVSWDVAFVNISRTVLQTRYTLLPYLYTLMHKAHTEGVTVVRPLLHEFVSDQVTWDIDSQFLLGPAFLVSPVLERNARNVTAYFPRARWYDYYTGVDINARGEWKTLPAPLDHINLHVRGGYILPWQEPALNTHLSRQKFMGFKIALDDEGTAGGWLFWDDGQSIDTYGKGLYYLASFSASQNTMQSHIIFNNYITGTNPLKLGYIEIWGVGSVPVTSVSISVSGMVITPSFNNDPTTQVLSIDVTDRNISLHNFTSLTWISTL
row,IC50,Structure (SMILES)
1,Not Active,COC(=O)c1ccc(/C=N/NC(=O)c2ccc(-c3nc4ccccc4s3)cc2)cc1
2,Not Active,COc1ccc(/C=N/NC(=O)c2ccc(-c3nc4ccccc4s3)cc2)cc1OC
3,Not Active,COc1ccc(/C=N/NC(=O)c2ccc(-c3nc4ccccc4s3)cc2)cc1O

# The next lines start with the molecule.
row,Structure (SMILES),IC50
1,O=C(N/N=C/c1cccnc1)c1ccc(-c2nc3ccccc3s2)cc1,Not Active
2,O=C(N/N=C/c1ccncc1)c1ccc(-c2nc3ccccc3s2)cc1,Not Active
